According to patent publication US20240299387A1, “HETEROCYCLIC EGFR INHIBITORS FOR USE IN THE TREATMENT OF CANCER” (Blueprint Medicines Corporation, priority 2021, published 2024):
Read-outs that look alike come from different tables or passages of the source.

How the values were obtained:
[1] = tested on: EGFR mutant NSCLC (EGFR M+); conditions: NSCLC patients; average treatment time to resistance; cited from earlier work
[2] = molecular target: T1, EGFR (L858R T790M C797S) (Homo sapiens, UniProt P00533, C797S/L858R/T790M); assay: Biochemical EGFR inhibition assay (Caliper mobility shift), EGFR LRTMCS mutant
T1 construct: purchased SignalChem E10-122VG
T1 sequence (P00533 25-1210 T790M/C797S/L858R): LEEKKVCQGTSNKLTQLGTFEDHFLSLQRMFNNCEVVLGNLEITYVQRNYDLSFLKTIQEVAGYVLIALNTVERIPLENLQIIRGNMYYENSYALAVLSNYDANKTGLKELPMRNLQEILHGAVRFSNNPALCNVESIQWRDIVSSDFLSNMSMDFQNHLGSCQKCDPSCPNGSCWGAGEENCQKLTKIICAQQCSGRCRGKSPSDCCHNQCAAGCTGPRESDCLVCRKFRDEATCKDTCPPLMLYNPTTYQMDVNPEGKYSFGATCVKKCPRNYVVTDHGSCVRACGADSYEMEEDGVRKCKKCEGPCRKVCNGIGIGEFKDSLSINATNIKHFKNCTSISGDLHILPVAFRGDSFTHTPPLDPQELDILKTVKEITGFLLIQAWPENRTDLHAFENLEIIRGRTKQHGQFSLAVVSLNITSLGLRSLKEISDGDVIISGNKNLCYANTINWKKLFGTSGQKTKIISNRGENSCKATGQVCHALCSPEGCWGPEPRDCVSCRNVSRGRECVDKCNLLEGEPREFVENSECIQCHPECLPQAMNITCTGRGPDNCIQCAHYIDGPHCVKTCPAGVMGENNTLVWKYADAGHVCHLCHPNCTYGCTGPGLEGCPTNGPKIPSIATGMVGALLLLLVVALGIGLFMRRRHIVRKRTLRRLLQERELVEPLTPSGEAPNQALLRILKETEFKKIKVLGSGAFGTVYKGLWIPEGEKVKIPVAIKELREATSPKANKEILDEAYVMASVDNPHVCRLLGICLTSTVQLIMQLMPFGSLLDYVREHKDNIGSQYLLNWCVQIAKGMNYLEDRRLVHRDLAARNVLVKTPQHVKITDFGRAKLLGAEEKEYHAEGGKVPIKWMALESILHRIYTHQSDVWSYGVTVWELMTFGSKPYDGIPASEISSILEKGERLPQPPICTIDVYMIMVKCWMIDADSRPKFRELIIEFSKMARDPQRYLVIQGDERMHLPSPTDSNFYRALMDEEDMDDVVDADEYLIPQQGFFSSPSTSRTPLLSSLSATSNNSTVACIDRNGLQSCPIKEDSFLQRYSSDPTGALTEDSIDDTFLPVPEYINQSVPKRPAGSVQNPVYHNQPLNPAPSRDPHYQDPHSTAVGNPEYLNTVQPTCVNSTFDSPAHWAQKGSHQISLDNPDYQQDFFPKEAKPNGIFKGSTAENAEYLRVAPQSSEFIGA
Outline: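 Kinase reactions at 25 °C run to 10–20% peptide phosphorylation, stopped with 35 mM EDTA. Phosphorylated product and substrate separated electrophoretically by mobility shift. Apparent IC50 from percent activity versus log compound concentration.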

[3] = molecular target: T2, EGFR L858R T790M in NCI-H1975 cell line (Homo sapiens, UniProt P00533, L858R/T790M); assay: NCI-H1975 pEGFR AlphaLISA assay; type: cell-based; conditions: NCI-H1975 cells (EGFR L858R T790M), p-EGFR (Tyr1068), 4-5 hours incubation; read-out: Ext pEGFR H1975 GMean IC50 (nM) Protocol: @Pharmaron AlphaLISA (Num)
T2 construct: host or cells: NCI-H1975
T2 sequence (P00533 25-1210 T790M/L858R): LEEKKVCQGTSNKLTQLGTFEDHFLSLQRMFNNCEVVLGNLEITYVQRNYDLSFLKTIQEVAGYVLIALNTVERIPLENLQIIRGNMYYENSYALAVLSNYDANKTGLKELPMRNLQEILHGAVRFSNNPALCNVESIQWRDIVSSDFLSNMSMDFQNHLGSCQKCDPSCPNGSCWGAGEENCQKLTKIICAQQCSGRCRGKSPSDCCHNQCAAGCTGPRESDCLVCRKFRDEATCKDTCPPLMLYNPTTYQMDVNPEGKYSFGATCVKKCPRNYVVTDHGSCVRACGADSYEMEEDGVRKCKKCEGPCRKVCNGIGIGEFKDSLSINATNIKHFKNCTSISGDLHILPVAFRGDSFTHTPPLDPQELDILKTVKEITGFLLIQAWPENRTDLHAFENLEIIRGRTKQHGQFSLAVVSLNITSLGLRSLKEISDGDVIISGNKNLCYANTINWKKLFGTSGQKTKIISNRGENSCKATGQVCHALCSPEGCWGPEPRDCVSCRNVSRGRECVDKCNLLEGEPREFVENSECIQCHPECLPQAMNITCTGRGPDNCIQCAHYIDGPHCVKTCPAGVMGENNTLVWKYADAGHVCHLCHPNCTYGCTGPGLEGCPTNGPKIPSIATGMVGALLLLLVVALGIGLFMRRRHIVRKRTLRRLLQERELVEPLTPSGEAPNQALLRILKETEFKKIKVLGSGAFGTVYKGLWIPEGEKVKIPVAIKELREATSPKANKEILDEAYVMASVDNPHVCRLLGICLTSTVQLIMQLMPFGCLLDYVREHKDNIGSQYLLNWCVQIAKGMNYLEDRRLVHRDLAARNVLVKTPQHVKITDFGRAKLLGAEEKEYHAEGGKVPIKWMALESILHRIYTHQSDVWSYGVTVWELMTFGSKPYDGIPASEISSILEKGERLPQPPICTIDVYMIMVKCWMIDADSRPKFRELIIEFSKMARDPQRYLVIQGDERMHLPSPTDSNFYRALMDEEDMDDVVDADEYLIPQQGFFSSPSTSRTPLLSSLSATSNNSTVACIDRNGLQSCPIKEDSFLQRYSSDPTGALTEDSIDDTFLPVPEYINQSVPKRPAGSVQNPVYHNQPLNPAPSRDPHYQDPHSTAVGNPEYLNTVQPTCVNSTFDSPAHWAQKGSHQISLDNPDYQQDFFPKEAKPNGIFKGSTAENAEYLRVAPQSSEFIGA
Outline: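 Phospho-EGFR measured by AlphaLISA after overnight donor-bead incubation; IC50 from percent pEGFR inhibition versus log concentration.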

[4] = LRTMCS (PH) IC50 (nM) @ 1 mM ATP (Num)

Row | Compound | time of treatment until resistance is observed [1] | IC50 [2, 4] [nM] | IC50 [3] [nM] | IC50 ([2]; read-out: LRTMCS (PH) IC50 (nM) @ 1 mM ATP (Num)) [nM]
1 | C=CC(=O)Nc1cc(Nc2nccc(-c3cn(C)c4ccccc34)n2)c(OC)cc1N(C)CCN(C)C [osimertinib] | approximately 10 months |  |  | 
2 | CC(C)c1cnc(C(=O)N[C@@H]2CN(C)C[C@H]2F)c2cnc(Nc3ccnc(N4CC[C@@H](O)[C@@](C)(F)C4)n3)cc12 (single isomer, unassigned) [Example 90] |  | < 15 | 10 to 20 | 
3 | CC(C)c1cnc(C(=O)NC2CN(C)C2)c2cnc(Nc3ccnc(N4CC[C@@H](O)[C@@](C)(F)C4)n3)cc12 [Example 59, 6-((2-((3S,4R)-3-fluoro-4-hydroxy-3-methylpiperidin-1-yl)pyrimidin-4-yl)amino)-4-isopropyl-N-(1-methylazetidin-3-yl)-2,7-naphthyridine-1-carboxamide] |  | < 15 | 30 to 50 | 
4 | CC(C)c1cnc(C(=O)NC2CC2)c2cnc(Nc3ccnc(N4CC[C@@H](O)[C@@](C)(F)C4)n3)cc12 [Example 68, N-cyclopropyl-6-((2-((3S,4R)-3-fluoro-4-hydroxy-3-methylpiperidin-1-yl)pyrimidin-4-yl)amino)-4-isopropyl-2,7-naphthyridine-1-carboxamide] |  | 15 to 20 | > 50 | 
5 | CC(C)c1ccc(OCCn2ccnn2)c2cnc(Nc3ccnc(N4CC[C@](C)(O)[C@H](F)C4)n3)cc12 [Example 32, (3R,4S)-1-(4-((8-(2-(1H-1,2,3-triazol-1-yl)ethoxy)-5-isopropylisoquinolin-3-yl)amino)pyrimidin-2-yl)-3-fluoro-4-methylpiperidin-4-ol] |  | < 15 | > 50 | 
6 | CC(C)c1ccc(OC[C@@H]2CC(=O)N(C)C2)c2cnc(Nc3ccnc(N4CC[C@@H](O)[C@@](C)(F)C4)n3)cc12 (single isomer, unassigned) [Example 21] |  |  | < 10 | < 15
7 | CC(C)c1cnc(NCCS(C)(=O)=O)c2cnc(Nc3ccnc(N4CC[C@@H](O)[C@@](C)(F)C4)n3)cc12 [Example 2, (3S,4R)-3-fluoro-1-(4-((5-isopropyl-8-((2-(methylsulfonyl)ethyl)amino)-2,7-naphthyridin-3-yl)amino)pyrimidin-2-yl)-3-methylpiperidin-4-ol] |  | < 15 | 10 to 20 | 
